Data: PubChem BioAssay (NCI)
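Tested at 5 concentrations; 48 h exposure; 96-well plates; endpoints linearly interpolated, else capped at highest concentration. GI50 marks 50% less growth. TGI denotes the concentration required for complete inhibition of growth.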

Experiments:
Assay in all cases: NCI-60 cell line screen, 48 h
DMS 273 small cell lung = tested on: DMS 273 small cell lung
HOP-18 NSCLC = tested on: HOP-18 NSCLC
XF 498 CNS = tested on: XF 498 CNS
KM12 colon = tested on: KM12 colon
M19-MEL melanoma = tested on: M19-MEL melanoma
SNB-78 CNS = tested on: SNB-78 CNS
DMS 114 small cell lung = tested on: DMS 114 small cell lung
DU-145 prostate = tested on: DU-145 prostate
PC-3 prostate = tested on: PC-3 prostate
MDA-MB-435 = tested on: MDA-MB-435
SR leukemia = tested on: SR leukemia
MDA-MB-231 breast = tested on: MDA-MB-231 breast
TK-10 renal = tested on: TK-10 renal
MDA-N = tested on: MDA-N
T-47D breast = tested on: T-47D breast
786-0 renal = tested on: 786-0 renal
BT-549 breast = tested on: BT-549 breast

Structure (SMILES): CSc1nc2c(ncn2C2OC(CO)C(O)C(O)C2O)c(=O)n1C (configuration not stated)
- TGI (DMS 273 small cell lung): > 100 µM
- TGI (HOP-18 NSCLC): > 100 µM
- TGI (XF 498 CNS): > 100 µM
- TGI (KM12 colon): > 100 µM
- TGI (M19-MEL melanoma): > 100 µM
- TGI (SNB-78 CNS): > 100 µM
- TGI (DMS 114 small cell lung): > 100 µM

Structure (SMILES): Nc1nc2cc(COc3ccc(C(=O)O)cc3)ccc2nc1-c1ccccc1
- TGI (DU-145 prostate): > 10 µM
- TGI (PC-3 prostate): > 10 µM
- TGI (MDA-MB-435): > 10 µM
- TGI (SR leukemia): > 10 µM
- TGI (MDA-MB-231 breast): > 10 µM
- TGI (KM12 colon): > 10 µM
- TGI (TK-10 renal): > 10 µM
- TGI (MDA-N): > 10 µM
- TGI (T-47D breast): > 10 µM

Structure (SMILES): C=CCn1c(C)nc2cc(Nc3nc(N4CCCC4)nc4nc[nH]c34)ccc21
- GI50 (DU-145 prostate): > 100 µM
- TGI (DU-145 prostate): > 100 µM
- GI50 (PC-3 prostate): > 100 µM
- TGI (PC-3 prostate): > 100 µM

Structure (SMILES): COc1cc(C2c3cc4c(cc3[C@@H](Nc3cnc5ccccc5c3)C3COC(=O)[C@H]23)OCO4)cc(OC)c1O (some centres not stated)
- TGI (DMS 273 small cell lung): 1.34 µM
- TGI (HOP-18 NSCLC): 2.65 µM
- TGI (XF 498 CNS): 4.66 µM
- TGI (KM12 colon): 2.67 µM
- TGI (M19-MEL melanoma): 3.28 µM
- TGI (SNB-78 CNS): > 100 µM
- TGI (DMS 114 small cell lung): 1.82 µM

Structure (SMILES): O=C(N/N=C/c1cc(Cl)cc(Cl)c1[O-])c1ccccc1O.O=C(N/N=C/c1cc(Cl)cc(Cl)c1[O-])c1ccccc1O.[Mn+2]
- TGI (SR leukemia): 0.832 µM
- GI50 (KM12 colon): 0.448 µM
- TGI (KM12 colon): 15.9 µM
- TGI (TK-10 renal): 16.2 µM

Structure (SMILES): C=C1C(=O)OC2/C=C(CO)/C=C\C3OC3(C)CC(OC(=O)/C(C)=C/COC(C)=O)C12 (configuration not stated)
- TGI (DU-145 prostate): 30.2 µM
- TGI (PC-3 prostate): 21.6 µM
- TGI (DMS 273 small cell lung): 4.3 µM
- TGI (MDA-MB-435): 4.32 µM
- TGI (SR leukemia): 13.7 µM
- TGI (HOP-18 NSCLC): 22.1 µM
- TGI (XF 498 CNS): 6.47 µM
- TGI (786-0 renal): 4.36 µM
- TGI (MDA-MB-231 breast): 9.13 µM
- TGI (KM12 colon): 14.2 µM
- TGI (TK-10 renal): 14 µM
- TGI (M19-MEL melanoma): 4.15 µM
- TGI (BT-549 breast): 3.25 µM
- TGI (SNB-78 CNS): 23.4 µM
- TGI (DMS 114 small cell lung): 10.9 µM
- TGI (MDA-N): 4.13 µM
- TGI (T-47D breast): 7.53 µM

Structure (SMILES): O=C1Nc2ccccc2C1(O)Cc1ccccn1 (configuration not stated)
- TGI (DU-145 prostate): > 100 µM
- TGI (PC-3 prostate): > 100 µM
- TGI (MDA-MB-435): > 100 µM
- TGI (SR leukemia): > 100 µM
- TGI (786-0 renal): > 100 µM
- TGI (MDA-MB-231 breast): > 100 µM
- TGI (KM12 colon): > 100 µM
- TGI (TK-10 renal): > 100 µM
- TGI (BT-549 breast): > 100 µM
- TGI (MDA-N): > 100 µM
- TGI (T-47D breast): > 100 µM

Structure (SMILES): C=C1C(=O)OC2/C=C(\CO)C3OC3C3OC3(C)CC(OC(=O)/C(=C/C)COC(C)=O)C12 (configuration not stated)
- TGI (DU-145 prostate): 32.3 µM
- TGI (PC-3 prostate): 27 µM
- TGI (DMS 273 small cell lung): 10.5 µM
- TGI (MDA-MB-435): 7.88 µM
- TGI (HOP-18 NSCLC): 21.6 µM
- TGI (XF 498 CNS): 4.54 µM
- TGI (786-0 renal): 5.36 µM
- TGI (MDA-MB-231 breast): 19.5 µM
- TGI (KM12 colon): 19 µM
- TGI (TK-10 renal): 11.1 µM
- TGI (M19-MEL melanoma): 3.94 µM
- TGI (BT-549 breast): 3.48 µM
- TGI (SNB-78 CNS): 13.4 µM
- TGI (DMS 114 small cell lung): 13.2 µM
- TGI (MDA-N): 13 µM
- TGI (T-47D breast): 9.7 µM

Structure (SMILES): O=c1c2cc([N+](=O)[O-])ccc2[nH]n1Cc1ccccc1Cl
- TGI (DU-145 prostate): > 100 µM
- TGI (PC-3 prostate): > 100 µM
- TGI (MDA-MB-435): > 100 µM
- TGI (SR leukemia): > 100 µM
- TGI (786-0 renal): > 100 µM
- TGI (MDA-MB-231 breast): > 100 µM
- TGI (KM12 colon): > 100 µM
- TGI (TK-10 renal): 99.9 µM
- TGI (MDA-N): > 100 µM

Structure (SMILES): O=C1Sc2sc(=S)sc2SC1c1ccccc1 (configuration not stated)
- TGI (DMS 273 small cell lung): > 100 µM
- TGI (HOP-18 NSCLC): > 100 µM
- TGI (XF 498 CNS): > 79.1 µM
- TGI (KM12 colon): > 100 µM
- TGI (M19-MEL melanoma): > 100 µM
- TGI (SNB-78 CNS): > 75.8 µM
- TGI (DMS 114 small cell lung): > 100 µM

Structure (SMILES): Cc1ccnn1CCc1ccc(Cl)cc1Cl
- TGI (DU-145 prostate): > 100 µM
- TGI (PC-3 prostate): > 100 µM
- TGI (MDA-MB-435): > 100 µM
- TGI (SR leukemia): > 100 µM
- TGI (MDA-MB-231 breast): > 100 µM
- TGI (KM12 colon): > 100 µM
- TGI (TK-10 renal): 48.1 µM
- TGI (BT-549 breast): 31.3 µM
- TGI (MDA-N): > 100 µM
- TGI (T-47D breast): > 100 µM

Structure (SMILES): COc1cccc(/C=N/[N+](C)(C)C)c1O
- TGI (DU-145 prostate): > 10 µM
- TGI (PC-3 prostate): > 10 µM
- TGI (MDA-MB-435): > 10 µM
- TGI (786-0 renal): > 10 µM
- TGI (MDA-MB-231 breast): > 10 µM
- TGI (KM12 colon): > 10 µM
- TGI (TK-10 renal): > 10 µM
- TGI (BT-549 breast): > 10 µM
- TGI (MDA-N): > 10 µM
- TGI (T-47D breast): > 10 µM

Structure (SMILES): CC1=CC2=C(C=O)C(=O)[C@](C)(O)[C@@H](O)C2=CO1
- TGI (DMS 273 small cell lung): > 90.2 µM
- TGI (HOP-18 NSCLC): > 92.7 µM
- TGI (XF 498 CNS): > 100 µM
- TGI (KM12 colon): > 100 µM
- TGI (M19-MEL melanoma): > 73.5 µM
- TGI (SNB-78 CNS): > 100 µM

Structure (SMILES): CS(C)(=O)=Nn1c(=O)n2n(c1=O)[C@H]1CC[C@@H]2C1
- TGI (DU-145 prostate): > 100 µM
- TGI (PC-3 prostate): > 100 µM
- TGI (MDA-MB-435): > 100 µM
- TGI (SR leukemia): > 100 µM
- TGI (MDA-MB-231 breast): > 100 µM
- TGI (KM12 colon): > 100 µM
- TGI (TK-10 renal): > 100 µM
- TGI (MDA-N): > 100 µM
- TGI (T-47D breast): > 100 µM

Structure (SMILES): Cc1c2cnccc2c(C)c2c1c1ccccc1n2CCCCCCCl
- TGI (DMS 273 small cell lung): > 50 µM
- TGI (HOP-18 NSCLC): > 7.93 µM
- TGI (XF 498 CNS): > 50 µM
- TGI (KM12 colon): > 50 µM
- TGI (M19-MEL melanoma): > 50 µM
- TGI (SNB-78 CNS): 49.8 µM
- TGI (DMS 114 small cell lung): > 50 µM

Structure (SMILES): COc1ccc2[nH]c(=O)cc(C)c2c1[N+](=O)[O-]
- TGI (DMS 273 small cell lung): > 100 µM
- TGI (XF 498 CNS): > 100 µM
- TGI (786-0 renal): > 100 µM
- TGI (KM12 colon): > 100 µM
- TGI (TK-10 renal): > 100 µM
- TGI (M19-MEL melanoma): > 100 µM
- TGI (SNB-78 CNS): > 100 µM
- TGI (DMS 114 small cell lung): > 100 µM

Structure (SMILES): O=C(O)C(C1NCCS1)N1C(=O)c2ccccc2C1=O (configuration not stated)
- TGI (DU-145 prostate): > 100 µM
- TGI (PC-3 prostate): > 100 µM
- TGI (MDA-MB-435): > 100 µM
- TGI (SR leukemia): > 100 µM
- TGI (786-0 renal): > 100 µM
- TGI (MDA-MB-231 breast): > 100 µM
- TGI (KM12 colon): > 100 µM
- TGI (TK-10 renal): > 100 µM
- TGI (BT-549 breast): > 100 µM
- TGI (MDA-N): > 100 µM
- TGI (T-47D breast): > 100 µM
